Reference: US10899741B2, “3,4-bipyridyl pyrazole derivative, and preparation method therefor and medical application thereof” (Jiangsu Hengrui Medicine Co., Ltd., priority 2016, dated 2021)

How the values were obtained:
[1] = tested on: NIH3T3 cell; assay: Inhibition of NIH3T3 cell proliferation (CellTiter-Glo); format: cell-based; conditions: NIH3T3, 72 hours, 0.5% FBS; for IC50: Mus musculus
Procedure: The inhibition effect of the compounds of the present invention on NIH3T3 cell proliferation was determined by the following in vitro test.
The inhibition effect of the compounds of the present invention on NIH3T3 cell proliferation was determined by the following experimental method:
On a 96-well white plate with transparent bottom (3903, Corning), 100 μL of NIH3T3 cell (GNM6, Cell Bank of Typical Culture Collection Committee of Chinese Academy of Sciences) was seeded in a DMEM medium containing 10% FBS (SH1-30243.01, GE) in each well. The seeding density is 2000 cells/well. The cells were incubated overnight at 37° C., in 5% CO2. After overnight incubation, each well was replaced with 90 μL of DMEM medium containing 0.5%0 FBS. 10 μl of a 3-fold gradient dilution of the compounds with DMEM medium containing 0.5% FBS was then added, and the plate was incubated for 72 hours in a cell incubator at 37° C., in 5% CO2. Finally, 50 μL of CellTiter-Glo (G7573, Promega) was added to each well. After incubation for 10 minutes at room temperature, the chemiluminescence signal values were measured with a Victor 3 microplate reader (PerkinElmer). The IC50 values of the compounds were calculated using Graphpad Prism software based on each concentration of the compound and the corresponding signal value thereof.

[2] = tested on: Smad signaling pathway of TGFβRI; assay: Inhibition of Smad signaling pathway of TGFβRI (3TP-lux luciferase reporter in HepG2 cells); format: cell-based; conditions: HepG2, 3TP-lux plasmid, 18 hours; for IC50: Homo sapiens
Procedure: The inhibition effect of the compounds of the present invention on Smad signaling pathway of TGFβRI was determined by the following in vitro test.
The inhibition effect of the compounds of the present invention on Smad signaling pathway of TGFβRI was determined by the following experimental method:
On a 96-well plate, 100 μL of HepG2 cell (TCHu 72, Cell Bank of Typical Culture Collection Committee of Chinese Academy of Sciences) was seeded on an EMEM medium containing 10% FBS (42360-099, Gibco) in each well. The seeding density is 2.5×10^4 cells/well. The cells were incubated overnight at 37° C., in 5% CO2. Each well was replaced with fresh EMEM medium containing 10% FBS. 0.1 μg of 3TP-lux plasmid (11767, Biovector Science Lab, Inc.) was transfected in each well. The cells were further incubated for 24 hours at 37° C., in 5% CO2. Each well was replaced with 90 μL of EMEM medium containing 0.5% FBS, then the cells were starved for 6 hours. The compounds were formulated as a 20 mM stock solution, which was diluted in gradient to a 400× concentration with 100% DMSO, and further 40-fold diluted with EMEM containing 0.5% FBS. The cell culture plate was taken out, then 10 μl of diluted compound or control (0.25% DMSO) was added to each well respectively. The plate was shaken gently, then incubated for 18 hours in an incubator at 37° C., in 5% CO2. Finally, 100 μl of detection reagent ONE-Glo™ Luciferase Assay (E6110, Promega) was added to each well, and the plate was placed in dark at room temperature for 10 minutes. The chemiluminescence signal values were measured with a Victor 3.0 (PerkinElmer). The IC50 values of the compounds were calculated using Graphpad Prism software based on each concentration of the compound and the corresponding signal value thereof.

[3] = biological target: TGFβRI kinase ALK5 (Homo sapiens (Human), UniProt P36897); assay: Inhibition of TGFβRI kinase ALK5 activity (ADP-Glo kit); format: biochemical; conditions: ATP 50 μM, 27° C. 2.5 hours
Procedure: The inhibition effect of TGFβRI kinase activity in vitro was determined by the following method.
The inhibition effect of the compounds of the present invention on TGFβRI kinase ALK5 activity was determined by the following experimental method:
TGFβRI kinase assay kit (V4093, Promega) was used to assay enzyme activity. 2 μl of enzyme solution (the final concentration of enzyme in the reaction system was 2 ng/μL) formulated with reaction buffer (40 mM Tris pH 7.5, 20 mM MgCl2, 0.1 mg/ml BSA), 1 μl of a 3-fold gradient dilution of the compounds dissolved in 5% DMSO, and 2 μl of a mixed solution of ATP and TGFβRI substrate peptide (the final concentration of ATP was 50 μM, and the final concentration of substrate was 0.2 μg/μL) were added successively to a 384-well plate (4514, Corning). After reaction at 27° C. for 2.5 hours, 5 μl of ADP-Glo solution in the kit was added to each well, then the plate was placed at 27° C. for 40 minutes. 10 μl of kinase assay reagent was then added to each well, then the plate was placed at 27° C. for 30 minutes. The chemiluminescence signal values were measured with a Victor 3 (PerkinElmer) multi-function microplate reader. The IC50 values of the compounds for enzyme inhibition were calculated using Graphpad prism software based on each concentration of the compound and the corresponding signal value thereof.

Chain of TGFβRI kinase ALK5 (P36897 34-503): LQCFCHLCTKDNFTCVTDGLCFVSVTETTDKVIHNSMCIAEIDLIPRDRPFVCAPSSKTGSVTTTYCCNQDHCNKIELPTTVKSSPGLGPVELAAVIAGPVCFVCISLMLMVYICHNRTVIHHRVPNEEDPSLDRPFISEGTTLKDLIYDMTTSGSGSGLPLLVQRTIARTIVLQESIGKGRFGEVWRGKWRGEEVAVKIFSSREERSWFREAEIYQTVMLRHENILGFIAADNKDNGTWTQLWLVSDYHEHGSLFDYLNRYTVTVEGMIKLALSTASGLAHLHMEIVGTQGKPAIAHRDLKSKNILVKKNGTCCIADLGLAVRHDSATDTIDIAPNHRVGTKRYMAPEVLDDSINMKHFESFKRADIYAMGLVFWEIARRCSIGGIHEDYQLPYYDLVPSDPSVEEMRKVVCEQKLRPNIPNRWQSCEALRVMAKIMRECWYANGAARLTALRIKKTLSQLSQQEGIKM

Row | SMILES | IC50 [1] [nM] | Maximum inhibition rate (%) [1] [%] | Maximum inhibition rate (%) [2] [%] | IC50 [2] [nM] | IC50 [3] [nM]
1 | Cc1cccc(-c2nn(C3CCCC3)cc2-c2ccnc(-c3ccc(S(C)(=O)=O)cc3)c2)n1 [Example 3, 4-(1-Cyclopentyl-3-(6-methylpyridin-2-yl)-1H-pyrazol-4-yl)-2-(4-(methylsulfonyl)phenyl)pyridine] | 366 | 105 | 101 | 57 | 241
2 | Cc1cccc(-c2nn(C3CC3)cc2-c2ccnc(-c3ccc(C#N)cc3)c2)n1 [Example 7, 4-(4-(1-Cyclopropyl-3-(6-methylpyridin-2-yl)-1H-pyrazol-4-yl)pyridin-2-yl)benzonitrile] | – | – | 98 | 168 | –
3 | Cc1cccc(-c2nn([C@@H]3CCN(S(C)(=O)=O)C3)cc2-c2ccnc(-c3ccc(S(C)(=O)=O)cc3)c2)n1 [Example 8, (R)-4-(3-(6-Methylpyridin-2-yl)-1-(1-(methylsulfonyl)pyrrolidin-3-yl)-1H-pyrazol-4-yl)-2-(4-(methylsulfonyl)phenyl)pyridine] | 490 | 114 | 98 | 218 | 370
